Test [1] addresses T1, FPR1 (Homo sapiens, UniProt P21462).
T1 construct: expressed in transfected cells
T1 sequence (P21462 1-350): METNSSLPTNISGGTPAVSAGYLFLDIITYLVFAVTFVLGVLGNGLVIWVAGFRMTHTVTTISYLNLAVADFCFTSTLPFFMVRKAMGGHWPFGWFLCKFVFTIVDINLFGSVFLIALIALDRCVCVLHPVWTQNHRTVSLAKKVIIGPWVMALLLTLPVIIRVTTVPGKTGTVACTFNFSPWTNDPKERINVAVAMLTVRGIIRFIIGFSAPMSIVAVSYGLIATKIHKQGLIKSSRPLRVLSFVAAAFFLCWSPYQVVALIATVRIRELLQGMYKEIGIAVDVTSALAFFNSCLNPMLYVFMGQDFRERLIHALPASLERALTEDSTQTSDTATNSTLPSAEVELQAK
As to the kind of experiment: Compound-induced calcium activity (FLIPR Tetra) in CHO-Gα16 cells stably expressing FPR1. Type of test: cell-based. The following applies: for EC50 / Emax: CHO-Gα16 cells stably expressing FPR1; for EC50: calcium activity, tested 0.61 to 10,000 nM, read-out: FPR1 Ga16-CHO EC50; for Emax: efficacy value in brackets, read-out: FPR1 Ga16-CHO (% eff); for Ratio FPR2:FPR1 (EC50): ratio of the EC50 for agonizing FPR2 to the EC50 for agonizing FPR1. On the procedure:
(§1) CHO-Gα16 cells stably expressing FPR1 or FPR2 were cultured in: Ham's F12 nutrient media, 10% fetal bovine serum, 1% PSA (penicillin, streptomycin, amphotericin B antiobiotic/antimycotic), 400 μg/ml geneticin and 50 μg/ml hygromycin. In general, the day before the experiment, 18,000 cells/well were plated in a 384-well clear bottom poly-D-lysine coated plate. The following day the screening compound-induced calcium activity was assayed on the FLIPR^Tetra. The drug plates were prepared in 384-well microplates using the EP3 and the MultiPROBE robotic liquid handling systems. Compounds were tested at concentrations ranging from 0.61 to 10,000 nM. Results are expressed as EC50 (nM) and efficacy values.

Test [2] addresses T2, FPR2 (Homo sapiens, UniProt P25090).
T2 construct: expressed in transfected cells
T2 sequence (P25090 1-351): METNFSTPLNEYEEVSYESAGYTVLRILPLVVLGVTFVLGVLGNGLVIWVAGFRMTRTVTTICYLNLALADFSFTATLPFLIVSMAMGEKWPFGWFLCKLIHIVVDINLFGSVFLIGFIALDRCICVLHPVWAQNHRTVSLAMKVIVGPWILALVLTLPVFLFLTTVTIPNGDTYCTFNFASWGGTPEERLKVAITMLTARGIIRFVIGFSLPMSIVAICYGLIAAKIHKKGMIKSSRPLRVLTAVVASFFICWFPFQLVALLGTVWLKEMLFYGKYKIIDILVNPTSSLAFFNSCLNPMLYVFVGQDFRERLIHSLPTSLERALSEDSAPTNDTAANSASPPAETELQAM
As to the kind of experiment: Compound-induced calcium activity (FLIPR Tetra) in CHO-Gα16 cells stably expressing FPR2. Type of test: cell-based. The following applies: for EC50: calcium activity, tested 0.61 to 10,000 nM, read-out: FPR2 Ga16-CHO EC50; for Emax: efficacy value in brackets, read-out: FPR2 Ga16-CHO (% eff). On the procedure: as §1

For the compound `O=C(Nc1ccc(Br)cc1)N[C@@H]1CCCC[C@H]1C(=O)O` (relative stereo) [Compound 18, (1R*,2R*)-2-(3-(4-Bromophenyl)ureido)cyclohexanecarboxylic acid], in test [1], the EC50 (as a rule, the concentration at which the effect is half-maximal) is 47 nM; the Emax stood at 101%; the “Ratio FPR2:FPR1 (EC50)” value turned out to be 5.2. In test [2], the half-maximal effective concentration (EC50) turned out to be 246 nM and the Emax amounted to 98%.

Regarding `O=C(Nc1ccc(Br)cc1)N[C@H]1CCCC[C@H]1C(=O)O` (relative stereo) [Compound 19, (1R*,2S*)-2-(3-(4-Bromophenyl)ureido)cyclohexanecarboxylic acid], in test [1], the EC50 came out at 14 nM, the Emax turned out to be 97% and the “Ratio FPR2:FPR1 (EC50)” value was 3.4. Moreover, in test [2], the half-maximal effective concentration (EC50) stood at 48 nM and the Emax was 102%.

Take `COC(=O)C(CNC(=O)Nc1ccc(Br)cc1)CC(C)C` (centres unmarked) [Compound 1, Methyl 2-[({[(4-bromophenyl)amino]carbonyl}amino)methyl]-4-methylpentanoate]: in test [1], the 50% effective concentration (EC50) came to 4030 nM, the Emax stood at 72% and the “Ratio FPR2:FPR1 (EC50)” value worked out at 0.17. In test [2], the concentration for a half-maximal effect (EC50) was 678 nM and the Emax came to 47%.

For `COC(=O)C(CNC(=O)Nc1ccc(C(F)(F)F)cc1)CC(C)C` (centres unmarked) [Compound 2, Methyl 4-methyl-2-{[({[4-(trifluoromethyl)phenyl]amino}carbonyl)amino]methyl}pentanoate], in test [1], the EC50 amounted to 10400 nM, the Emax was 57% and the “Ratio FPR2:FPR1 (EC50)” value is listed as 0.21. In test [2], the EC50 turned out to be 2200 nM and the Emax worked out at 78%.

As to `COC(=O)C(CNC(=O)Nc1ccc(Cl)cc1)CC(C)C` (centres unmarked) [Compound 3, Methyl 2-[({[(4-chlorophenyl)amino]carbonyl}amino)methyl]-4-methylpentanoate], in test [1], the concentration giving a half-maximal response (EC50) is > 10000 nM, the Emax was 50% and the “Ratio FPR2:FPR1 (EC50)” value is given as <1. In addition, in test [2], the EC50 came to 1320 nM and the Emax was 95%.

For the compound `COC(=O)C(CNC(=O)Nc1ccc(Br)cc1F)CC(C)C` (centres unmarked) [Compound 4, Methyl 2[({[(4-bromo-2-fluorophenyl)amino]carbonyl}amino)methyl]-4-methylpentanoate], in test [1], the EC50 is > 19000 nM, the Emax is 21% and the “Ratio FPR2:FPR1 (EC50)” value is given as <1. In addition, in test [2], the EC50 was determined as 1530 nM and the Emax came out at 98%.

Consider `COC(=O)C(CNC(=O)Nc1ccc(OC)cc1)CC(C)C` (centres unmarked) [Compound 5, Methyl 2-[({[(4-methoxyphenyl)amino]carbonyl}amino)methyl]-4-methylpentanoate], for which, in test [1], the half-maximal effective concentration (EC50) is > 73000 nM, the Emax was 65% and the “Ratio FPR2:FPR1 (EC50)” value is <1. In addition, in test [2], the EC50 came out at 541 nM and the Emax was 42%.

Consider `COC(=O)C(CNC(=O)Nc1ccc(OC(F)(F)F)cc1)CC(C)C` (centres unmarked) [Compound 6, Methyl 4-methyl-2-{[({[4-(trifluoromethoxy)phenyl]amino}carbonyl)amino]methyl}pentanoate], for which, in test [1], the EC50 is > 15000 nM and the Emax worked out at 39%. Also, in test [2], the EC50 was > 1000 nM and the Emax turned out to be 67%.

Take `CC(C)CC(CNC(=O)Nc1ccc(Br)cc1)C(=O)O` (centres unmarked) [Compound 7, 2-[({[(4-Bromophenyl)amino]carbonyl}amino)methyl]-4-methylpentanoic acid]: in test [1], the EC50 is 35 nM, the Emax came to 97% and the “Ratio FPR2:FPR1 (EC50)” value turned out to be 37. For the same compound, in test [2], the EC50 worked out at 1300 nM and the Emax was 90%.

For `CC(C)CC(CNC(=O)Nc1ccc(C(F)(F)F)cc1)C(=O)O` (centres unmarked) [Compound 8, 4-Methyl-2-{[({[4-(trifluoromethyl)phenyl}amino}carbonyl)amino]methyl}pentanoic acid], in test [1], the EC50 amounted to 54 nM, the Emax was found to be 105% and the “Ratio FPR2:FPR1 (EC50)” value was determined as 25. In addition, in test [2], the EC50 is 1350 nM and the Emax came to 92%.

For `CC(C)CC(CNC(=O)Nc1ccc(Cl)cc1)C(=O)O` (centres unmarked) [Compound 9, 2-[({[(4-Chlorophenyl)amino]carbonyl}amino)methyl]-4-methylpentanoic acid], in test [1], the 50% effective concentration (EC50) was determined as 163 nM, the Emax is 95% and the “Ratio FPR2:FPR1 (EC50)” value turned out to be 18. The EC50 in test [2] was 3000 nM.

Turning to `CC(C)CC(CNC(=O)Nc1ccc(Br)cc1F)C(=O)O` (centres unmarked) [Compound 10, 2[({[(4-Bromo-2-fluorophenyl)amino]carbonyl}amino)methyl]-4-methylpentanoic acid], in test [1], the EC50 worked out at 113 nM, the Emax turned out to be 98% and the “Ratio FPR2:FPR1 (EC50)” value is reported as 17. Besides, in test [2], the EC50 is 1910 nM and the Emax came to 94%.

With `COc1ccc(NC(=O)NCC(CC(C)C)C(=O)O)cc1` (centres unmarked) [Compound 11, 2-[({[(4-methoxyphenyl)amino]carbonyl}amino)methyl]-4-methylpentanoic acid], the figures for the concentration giving a half-maximal response (EC50) in test [1] and in test [2] were 1220 nM and > 1000 nM, respectively. Further, the results for the Emax in test [1] and in test [2] were 92% and 56%, respectively.

Take `CC(C)CC(CNC(=O)Nc1ccc(OC(F)(F)F)cc1)C(=O)O` (centres unmarked) [Compound 12, 4-Methyl-2-{[({[4-(trifluoromethoxy)phenyl]amino}carbonyl)amino]methyl}pentanoic acid]: in test [1], the EC50 was determined as 1180 nM, the Emax stood at 81% and the “Ratio FPR2:FPR1 (EC50)” value came to 6.9. In addition, in test [2], the EC50 worked out at 8090 nM and the Emax is 40%.

As for `CC(C)C(CNC(=O)Nc1ccc(Br)cc1)C(=O)O` (centres unmarked) [Compound 13, 2-((3-(4-Bromophenyl)ureido)methyl)-3-methylbutanoic acid], in test [1], the half-maximal effective concentration (EC50) is 2190 nM, the Emax came to 97% and the “Ratio FPR2:FPR1 (EC50)” value turned out to be 1.2. For the same compound, in test [2], the EC50 is 2670 nM and the Emax was 83%.

For the compound `CCCC(CNC(=O)Nc1ccc(Br)cc1)C(=O)O` (centres unmarked) [Compound 14, 2-((3-(4-Bromophenyl)ureido)methyl)pentanoic acid], in test [1], the EC50 worked out at 243 nM, the Emax is 99% and the “Ratio FPR2:FPR1 (EC50)” value amounted to 5.4. Moreover, in test [2], the EC50 was determined as 1320 nM and the Emax was determined as 83%.

For the compound `O=C(NCC(Cc1ccccc1)C(=O)O)Nc1ccc(Br)cc1` (centres unmarked) [Compound 15, 2-Benzyl-3-(3-(4-bromophenyl)ureido)propanoic acid], in test [1], the half-maximal effective concentration (EC50) stood at 67 nM, the Emax was 94% and the “Ratio FPR2:FPR1 (EC50)” value was 5.2. In test [2], the 50% effective concentration (EC50) turned out to be 351 nM and the Emax amounted to 93%.

With `CC(CNC(=O)Nc1ccc(Br)cc1)C(=O)O` (centres unmarked) [Compound 16, 3-(3-(4-Bromophenyl)ureido)-2-methylpropanoic acid], in test [1], the EC50 is 2850 nM, the Emax stood at 84% and the “Ratio FPR2:FPR1 (EC50)” value amounted to 1.1. In test [2], the concentration giving a half-maximal response (EC50) came out at 3070 nM and the Emax was determined as 62%.

Turning to `CCC(CNC(=O)Nc1ccc(Br)cc1)C(=O)O` (centres unmarked) [Compound 17, 2-((3-(4-Bromophenyl)ureido)methyl)butanoic acid], in test [1], the EC50 worked out at 2150 nM, the Emax turned out to be 85% and the “Ratio FPR2:FPR1 (EC50)” value was 1.1. Further, in test [2], the concentration for a half-maximal effect (EC50) is 2270 nM and the Emax stood at 71%.

`O=C(Nc1ccc(Br)cc1)NC1CCCCCCC1C(=O)O` (centres unmarked) [Compound 20, 2-(3-(4-Bromophenyl)ureido)cyclooctanecarboxylic acid]: in test [1], the concentration giving a half-maximal response (EC50) was found to be 51 nM and the “Ratio FPR2:FPR1 (EC50)” value was determined as 1.6. In addition, in test [2], the EC50 came to 82 nM and the Emax is 97%.

Regarding `CC(C)CC(CCNC(=O)Nc1ccc(Br)cc1)S(=O)(=O)O` (centres unmarked) [Compound 21, 1-(3-(4-Bromophenyl)ureido)-5-methylhexane-3-sulfonic acid], in test [1], the 50% effective concentration (EC50) is 7 nM, the Emax is 99% and the “Ratio FPR2:FPR1 (EC50)” value was 179. In addition, in test [2], the EC50 was 1260 nM and the Emax worked out at 89%.

Source of the values: patent US11286234B2, “Phenyl urea derivatives as N-formyl peptide receptor modulators” (Allergan, Inc., priority 2016, dated 2022).
